In test [1] the test system is NCI-H1975 (ATCC CRL-5908) cell line comprising an EGFR T790M L858R double mutation. Put plainly: EGFR-SOS cellular inhibition assay (CellTiter-Glo cell proliferation). The note with it: Homo sapiens, 120 h; NCI-H1975 cell proliferation, approximately 5 days; read-out: H1975 IC50. The test is classed as cell-based.
Protocol: A CellTiter-Glo (CTG) luminescent based assay (Promega) is used to assess growth of the cells, as a measurement of the ability of the compounds herein to inhibit EGFR signaling in the cells. […] The day after plating, cells are treated with a dilution series (e.g., a 9 point 3-fold dilution series) of the compounds herein (e.g., approximately 125 μL final volume per well).
Another test deals with SOS1 (Homo sapiens (Human), UniProt Q07889). Put plainly: Ras-SOS interaction assay (HTRF), K-Ras G13D utilized. The note with it: K-Ras G13D, read-out: SOS1 IC50. The test is classed as binding. For orientation: Time-resolved FRET reads energy transfer from a long-lived donor to a nearby acceptor.
Sequence of SOS1 (Q07889 564-1049): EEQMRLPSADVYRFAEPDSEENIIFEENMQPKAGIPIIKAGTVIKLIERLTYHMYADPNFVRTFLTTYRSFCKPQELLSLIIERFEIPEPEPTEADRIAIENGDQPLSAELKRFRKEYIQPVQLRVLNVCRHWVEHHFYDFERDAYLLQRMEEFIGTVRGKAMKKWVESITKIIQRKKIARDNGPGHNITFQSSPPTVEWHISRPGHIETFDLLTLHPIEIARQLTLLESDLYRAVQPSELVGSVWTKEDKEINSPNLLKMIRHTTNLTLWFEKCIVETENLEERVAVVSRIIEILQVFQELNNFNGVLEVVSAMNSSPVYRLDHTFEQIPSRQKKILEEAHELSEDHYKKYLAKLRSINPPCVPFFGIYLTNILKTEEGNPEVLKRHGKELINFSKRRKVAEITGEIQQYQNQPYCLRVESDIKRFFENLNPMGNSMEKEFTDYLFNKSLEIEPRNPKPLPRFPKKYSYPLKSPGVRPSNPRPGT

Where only a bound is given, the exact number is not on record here.

One may read the IC50 as the concentration that inhibits the measured activity by half. Take `CC(C)N1CCN(c2cc3c4ncnc3n(c2=O)CCCCCCN2CCC(CC2)CC(F)(F)c2cccc(c2)[C@@H](C)N4)CC1` [Compound 50, (3R)-5,5-difluoro-1^6-(4-isopropylpiperazin-1-yl)-3-methyl-1^7,1^8-dihydro-2-aza-1(4,8)-pyrido[2,3-d]pyrimidina-7(4,1)-piperidina-4(1,3)-benzenacyclotridecaphan-1^7-one]: the IC50 in test [1] is less than 1000 nM; on SOS1, less than 100 nM.
For `C[C@H]1Nc2ncnc3c2cc(C2(C#N)CC2)c(=O)n3CC(=O)N(C)CCCCN2CCC(CC2)C(F)(F)c2cccc1c2` [Compound 52, 1-((4R)-2,2-difluoro-4,9-dimethyl-6^7,8-dioxo-6^7,6^8-dihydro-5,9-diaza-6(4,8)-pyrido[2,3-d]pyrimidina-1(4,1)-piperidina-3(1,3)-benzenacyclotridecaphane-6^6-yl)cyclopropane-1-carbonitrile] the same measures were less than 1000 nM and less than 100 nM.
The like results for `CC(C)N1CCN(c2cc3c4ncnc3n(c2=O)CC(=O)NCCCCN2CCC(CC2)C(F)(F)c2cccc(c2)[C@@H](C)N4)CC1` [Compound 53, (4R)-2,2-difluoro-6^6-(4-isopropylpiperazin-1-yl)-4-methyl-6^7,6^8-dihydro-5,9-diaza-6(4,8)-pyrido[2,3-d]pyrimidina-1(4,1)-piperidina-3(1,3)-benzenacyclotridecaphane-6^7,8-dione] were, in that order, less than 1000 nM and less than 100 nM.
Regarding `C[C@H]1Nc2ncnc3c2cc(C2CCS(=O)(=O)CC2)c(=O)n3CCCCCC(C)(C)CN2CCC(CC2)C(F)(F)c2cccc1c2` [Compound 55, (4R)-6^6-(1,1-dioxidotetrahydro-2H-thiopyran-4-yl)-2,2-difluoro-4,12,12-trimethyl-6^7,6^8-dihydro-5-aza-6(4,8)-pyrido[2,3-d]pyrimidina-1(4,1)-piperidina-3(1,3)-benzenacyclotridecaphan-6^7-one], the values for the IC50 (in test [1]; at SOS1) were less than 1000 nM and less than 100 nM, respectively.
In the case of `C[C@H]1Nc2ncnc3c2cc(N2CCN(C)CC2)c(=O)n3CCCCCCCN2CCC(CC2)C(F)(F)c2cccc1c2F` [Compound 57, (4R)-3^2,2,2-trifluoro-4-methyl-6^6-(4-methylpiperazin-1-yl)-6^7,6^8-dihydro-5-aza-6(4,8)-pyrido[2,3-d]pyrimidina-1(4,1)-piperidina-3(1,3)-benzenacyclotridecaphan-6^7-one], the figures for the IC50 (in test [1]; on SOS1) were less than 1000 nM and less than 100 nM, respectively.
For `C[C@H]1Nc2ncnc3c2cc(C2(C#N)CC2)c(=O)n3CCCCCC(O)CN2CCC(CC2)C(F)(F)c2cccc1c2` (stereo partly drawn) [Compound 58, 1-((4R)-2,2-difluoro-12-hydroxy-4-methyl-6^7-oxo-6^7,6^8-dihydro-5-aza-6(4,8)-pyrido[2,3-d]pyrimidina-1(4,1)-piperidina-3(1,3)-benzenacyclotridecaphane-6^6-yl)cyclopropane-1-carbonitrile] the same measures were less than 1000 nM and less than 100 nM.
The like results for `C[C@H]1Nc2ncnc3c2cc(C2CCS(=O)(=O)CC2)c(=O)n3CC(=O)NCCCCN2CCC(CC2)C(F)(F)c2cccc1c2` [Compound 60, (4R)-6^6-(1,1-dioxidotetrahydro-2H-thiopyran-4-yl)-2,2-difluoro-4-methyl-6^7,6^8-dihydro-5,9-diaza-6(4,8)-pyrido[2,3-d]pyrimidina-1(4,1)-piperidina-3(1,3)-benzenacyclotridecaphane-6^7,8-dione] were, in that order, less than 1000 nM and less than 100 nM.
For `C[C@H]1Nc2ncnc3c2cc(C2CCS(=O)(=O)CC2)c(=O)n3CCCOCCCCN2CCC(CC2)C(F)(F)c2cccc1c2` [Compound 62, (4R)-66-(1,1-dioxidotetrahydro-2H-thiopyran-4-yl)-2,2-difluoro-4-methyl-67,68-dihydro-10-oxa-5-aza-6(4,8)-pyrido[2,3-d]pyrimidina-1(4,1)-piperidina-3(1,3)-benzenacyclotetradecaphan-67-one] the same measures were less than 1000 nM and less than 100 nM.
Take `CC1CCCCCCn2c(=O)c(C3(C#N)CC3)cc3c(ncnc32)N[C@H](C)c2cccc(c2)C(F)(F)C2CCN1CC2` (stereo partly drawn) [Compound 63, 1-((4R)-2,2-difluoro-4,13-dimethyl-6^7-oxo-6^7,6^8-dihydro-5-aza-6(4,8)-pyrido[2,3-d]pyrimidina-1(4,1)-piperidina-3(1,3)-benzenacyclotridecaphane-6^6-yl)cyclopropane-1-carbonitrile]: the IC50 is less than 1000 nM in test [1] and less than 100 nM at SOS1.
For `C[C@H]1Nc2ncnc3c2cc(N2CCOCC2)c(=O)n3CCCCCCCN2CCC(CC2)C(F)(F)c2cccc1c2` [Compound 64, (4R)-2,2-difluoro-4-methyl-6^6-morpholino-6^7,6^8-dihydro-5-aza-6(4,8)-pyrido[2,3-d]pyrimidina-1(4,1)-piperidina-3(1,3)-benzenacyclotridecaphan-6^7-one] the same measures were less than 1000 nM and less than 100 nM.
For `C[C@H]1Nc2ncnc3c2cc(C2(C#N)CC2)c(=O)n3CCCC/C=C/CN2CCC(CC2(C)C)C(F)(F)c2cccc1c2` (stereo partly drawn) [Compound 70, 1-((4R,E)-2,2-difluoro-1^2,1^2,4-trimethyl-6^7-oxo-6^7,6^8-dihydro-5-aza-6(4,8)-pyrido[2,3-d]pyrimidina-1(4,1)-piperidina-3(1,3)-benzenacyclotridecaphan-11-en-6^6-yl)cyclopropane-1-carbonitrile] the same measures were less than 1000 nM and less than 100 nM.
Regarding `C[C@H]1Nc2ncnc3c2cc(C2(C#N)CC2)c(=O)n3CCNC(=O)CCCN2CCC(CC2)C(F)(F)c2cccc1c2` [Compound 71, 1-((4R)-2,2-difluoro-4-methyl-6^7,10-dioxo-6^7,6^8-dihydro-5,9-diaza-6(4,8)-pyrido[2,3-d]pyrimidina-1(4,1)-piperidina-3(1,3)-benzenacyclotridecaphane-6^6-yl)cyclopropane-1-carbonitrile], the concentration for half-maximal inhibition (IC50) in test [1] was less than 1000 nM; on SOS1 it was less than 100 nM.
For the molecule `C[C@@H]1CCCNC(=O)Cn2c(=O)c(C3(C#N)CC3)cc3c(ncnc32)N[C@H](C)c2cccc(c2F)C(F)(F)C2CCN1CC2` [Compound 72, 1-((4R,13R)-3^2,2,2-trifluoro-4,13-dimethyl-6^7,8-dioxo-6^7,6^8-dihydro-5,9-diaza-6(4,8)-pyrido[2,3-d]pyrimidina-1(4,1)-piperidina-3(1,3)-benzenacyclotridecaphane-6^6-yl)cyclopropane-1-carbonitrile], the half-maximal inhibitory concentration (IC50) in test [1] is less than 1000 nM; at SOS1 it was less than 100 nM.
For `CC(C)N1CCC(c2cc3c4ncnc3n(c2=O)CCCCCCCN2CCC(CC2)C(F)(F)c2cccc(c2)[C@@H](C)N4)CC1` [Compound 73, (4R)-2,2-difluoro-6^6-(1-isopropylpiperidin-4-yl)-4-methyl-6^7,6^8-dihydro-5-aza-6(4,8)-pyrido[2,3-d]pyrimidina-1(4,1)-piperidina-3(1,3)-benzenacyclotridecaphan-6^7-one] the same measures were less than 1000 nM and less than 100 nM.
`C[C@H]1Nc2ncnc3c2cc(C2CCS(=O)(=O)CC2)c(=O)n3CCCC/C=C/CN2CCC(CC2(C)C)C(F)(F)c2cccc1c2` (stereo partly drawn) [Compound 74, (4R,E)-6^6-(1,1-dioxidotetrahydro-2H-thiopyran-4-yl)-2,2-difluoro-1^2,1^2,4-trimethyl-6^7,6^8-dihydro-5-aza-6(4,8)-pyrido[2,3-d]pyrimidina-1(4,1)-piperidina-3(1,3)-benzenacyclotridecaphan-11-en-6^7-one]: the IC50 in test [1] is less than 1000 nM; at SOS1, less than 100 nM.
For `C[C@H]1Nc2ncnc3c2cc(C2(C#N)CCOCC2)c(=O)n3CCCCCCCN2CCC(CC2)C(F)(F)c2cccc1c2` [Compound 76, 4-((4R)-2,2-difluoro-4-methyl-6^7-oxo-6^7,6^8-dihydro-5-aza-6(4,8)-pyrido[2,3-d]pyrimidina-1(4,1)-piperidina-3(1,3)-benzenacyclotridecaphane-6^6-yl)tetrahydro-2H-pyran-4-carbonitrile] the same measures were less than 1000 nM and less than 100 nM.
For `CC(C)N1CCN(c2cc3c4ncnc3n(c2=O)CCCOCCCCN2CCC(CC2)C(F)(F)c2cccc(c2F)[C@@H](C)N4)CC1` [Compound 77, (4R)-3^2,2,2-trifluoro-6^6-(4-isopropylpiperazin-1-yl)-4-methyl-6^7,6^8-dihydro-10-oxa-5-aza-6(4,8)-pyrido[2,3-d]pyrimidina-1(4,1)-piperidina-3(1,3)-benzenacyclotetradecaphan-6^7-one] the same measures were less than 1000 nM and less than 100 nM.
For the molecule `C[C@H]1Nc2ncnc3c2cc(C2CCS(=O)(=O)CC2)c(=O)n3CC(=O)N(C)CCCCN2CCC(CC2(C)C)C(F)(F)c2cccc1c2` (stereo partly drawn) [Compound 78, (1^4R,4R)-6^6-(1,1-dioxidotetrahydro-2H-thiopyran-4-yl)-2,2-difluoro-1^2,1^2,4,9-tetramethyl-6^7,6^8-dihydro-5,9-diaza-6(4,8)-pyrido[2,3-d]pyrimidina-1(4,1)-piperidina-3(1,3)-benzenacyclotridecaphane-6^7,8-dione], the IC50 is less than 1000 nM in test [1] and less than 100 nM on SOS1.
The like results for `C/C1=C\CCCCn2c(=O)c(C3CCS(=O)(=O)CC3)cc3c(ncnc32)N[C@H](C)c2cccc(c2)C(F)(F)C2CCN(CC2)C1` [Compound 80, (4R,E)-6^6-(1,1-dioxidotetrahydro-2H-thiopyran-4-yl)-2,2-difluoro-4,12-dimethyl-6^7,6^8-dihydro-5-aza-6(4,8)-pyrido[2,3-d]pyrimidina-1(4,1)-piperidina-3(1,3)-benzenacyclotridecaphan-11-en-6^7-one] were, in that order, less than 1000 nM and less than 100 nM.
The like results for `C[C@H]1Nc2ncnc3c2cc(C2CCS(=O)(=O)CC2)c(=O)n3CCCCCCCN2CCC(CC2)C(F)(F)c2cccc1c2` [Compound 83, (4R)-6^6-(1,1-dioxidotetrahydro-2H-thiopyran-4-yl)-2,2-difluoro-4-methyl-6^7,6^8-dihydro-5-aza-6(4,8)-pyrido[2,3-d]pyrimidina-1(4,1)-piperidina-3(1,3)-benzenacyclotridecaphan-6^7-one] were, in that order, less than 1000 nM and less than 100 nM.

The values are drawn from patent US20230339952A1, “MACROCYCLIC HETEROCYCLES AND USES THEREOF” (Kumquat Biosciences Inc., priority 2022, published 2023).
